Structures can show the parent of a compound that is named as a salt. Where two headings read alike, the source gives them in different places.
Tests used:
[1] = target: T1, FTH ferritin (Homo sapiens, UniProt P02794); experiment: one-step process incorporation of DOX into FTH ferritin; type: physicochemical; conditions: for incorporation efficiency of the reagent: FTH ferritin 1 mg/mL; for number of molecules of DOX incorporated into one molecule of FTH ferritin: presumed, average
T1 construct: made in house; host or cells: Escherichia coli BL21 (DE3), plasmid pET20-FTH
T1 sequence (P02794 whole entry): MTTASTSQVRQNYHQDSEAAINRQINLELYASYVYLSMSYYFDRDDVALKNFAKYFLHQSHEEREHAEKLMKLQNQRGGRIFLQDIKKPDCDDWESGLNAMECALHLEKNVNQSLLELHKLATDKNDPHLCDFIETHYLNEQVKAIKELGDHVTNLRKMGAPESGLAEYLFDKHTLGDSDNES
Method: (§1) In this reaction, an acetate buffer was used for pH 3, 4, 5 and 6, while Tris-HCl buffer was used for pH 7, 8 and 9. After the standing, 0.5 mL of water was added to the resulting solution. After the resulting solution was centrifuged (at 15,000 rpm for one minute), the supernatant was injected into a desalting column PD-10 (Sephadex G-25 filled product, GE Healthcare Inc.) equilibrated with 10 mM Tris-HCl buffer (pH 8) to separate the protein from a reagent that was not encapsulated. Whole amount (3.5 mL) of the resulting solution was concentrated to 0.1 mL by centrifugal ultrafiltration using Vivaspin 20-100K (GE Healthcare Inc.), and then absorbances at 280 nm and 480 nm were measured using spectrophotometer (DU-800, Beckman Coulter Inc.).
as §1, with “After” for “In this reaction, an acetate buffer was used for pH 3, 4, 5 and 6, while Tris-HCl buffer was used for pH 7, 8 and 9. After”, “into the” for “into a”
After the standing, 0.5 mL water was added to the resulting solution. After the resulting solution was centrifuged (at 15,000 rpm for one minute), the supernatant was injected into the desalting column PD-10 (Sephadex G-25 filled product, GE Healthcare Inc.) equilibrated with 10 mM Tris-HCl buffer (pH 8) to separate the protein from a reagent that was not encapsulated. Whole amount (3.5 mL) of the resulting solution was concentrated by centrifugal ultrafiltration using Vivaspin 20-100K (GE Healthcare Inc.). Glycine-HCl buffer (pH 2.3) was added to the resulting solution to achieve a final concentration of 100 mM, then a volume was controlled to 0.2 mL. […] The absorbance at 480 nm was measured using spectrophotometer (DU-800, Beckman Coulter Inc.) for the resulting solution in order to determine the concentration of DOX. The concentration of protein in the solution was determined using the protein assay CBB solution (Nacalai Tesque, Inc.) as well as bovine albumin as a standard.
After the standing, 0.5 mL water was added to the resulting solution. After the resulting solution was centrifuged (at 15,000 rpm for one minute), the supernatant was injected into the desalting column PD-10 (Sephadex G-25 filled product, GE Healthcare Inc.) equilibrated with 10 mM Tris-HCl buffer (pH 8) to separate the protein from a reagent that was not encapsulated. Whole amount (3.5 mL) of the resulting solution was concentrated by centrifugal ultrafiltration using Vivaspin 20-100K (GE Healthcare Inc.). Glycine-HCl buffer (pH 2.3) was added to the resulting solution to achieve a final concentration of 100 mM, then a volume was controlled to 0.5 mL. The absorbance at 480 nm was measured using spectrophotometer (DU-800, Beckman Coulter Inc.) for the resulting solution in order to determine the concentration of DOX. The concentration of protein in the solution was determined using the protein assay CBB solution (Nacalai Tesque, Inc.) as well as bovine albumin as a standard.

[2] = target: T1, FTH ferritin; experiment: one-step process incorporation of small molecule agents into FTH ferritin; type: physicochemical; conditions: pH of buffer giving the largest amount of incorporation within ferritin
Method: All of the reactions were performed in 0.1 mL volume. […] The absorbances were measured using spectrophotometer (DU-800, Beckman Coulter Inc.) for these solutions, and the concentration of contained protein was determined using the protein assay CBB solution (Nacalai Tesque, Inc.) as well as bovine albumin as a standard. Absorbances at 280 nm and 480 nm were measured for Rhodamine B and Congo Red. […] Then, after the absorbances were calibrated based on the absorbances that were derived from the proteins and presumed by the amount of contained protein quantified using the protein assay CBB solution, the concentrations of small molecule agents were determined based on the calibration curves obtained by the absorbances of the molecules. […] As a result, the one-step process enabled incorporating also the small molecule agents with different physical properties such as molecular weight and pKa simply and easily.

[3] = target: T2, FTHc ferritin (Homo sapiens, UniProt P02794); experiment: one-step incorporation of DOX into mutant ferritin FTHc; type: physicochemical; conditions: pH 8, 50° C., 60 minutes, DOX 0.3 mg/L
T2 construct: pET20-FTH carrying a DNA encoding a human-derived ferritin H chain monomer as a template; single cysteine residue (C) appended; made in house; host or cells: Escherichia coli BL21 (DE3), plasmid pET20-FTHc
T2 sequence (P02794 with tags, fused parts or gaps): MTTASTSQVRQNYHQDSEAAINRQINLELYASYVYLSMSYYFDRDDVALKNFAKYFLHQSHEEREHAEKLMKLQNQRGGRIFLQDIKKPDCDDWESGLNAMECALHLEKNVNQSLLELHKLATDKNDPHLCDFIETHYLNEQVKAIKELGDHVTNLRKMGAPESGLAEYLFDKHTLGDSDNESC
Method: PCR was carried out using pET20-FTH carrying a DNA encoding a human-derived ferritin H chain monomer as a template as well as the following primers: 5′-[…]-3′ (SEQ ID NO: 12) and 5′-[…]-3′ (SEQ ID NO: 13). The resulting PCR products were purified using Wizard DNA Clean-Up System (Promega Corporation), and then treated with restriction enzymes, Dpnl and BamHI (Takara Bio Inc.) for self-ligation in order to construct an expression plasmid (pET20-FTHc) carrying a gene encoding FTHc monomer with a cysteine added to the C-terminus. Ferritin including FTHc monomers is referred to as FTHc ferritin, as appropriate.
DOX was mixed with 1 mL of 50 mM Tris-HCl buffer (pH 8) that contains each mutate ferritin at a final concentration of 1 mg/mL, to achieve a final concentration of 0.3 mg/L, and then the resulting solutions were left to stand at 50° C. for 60 minutes. After the standing and centrifuging (at 15,000 rpm for one minute), the supernatant was injected into the desalting column PD-10 (Sephadex G-25 filled product, GE Healthcare Inc.) equilibrated with 10 mM Tris-HCl buffer (pH 8) to separate the protein from a reagent that was not encapsulated. […] The concentration of contained protein was determined using the protein assay CBB solution (Nacalai Tesque, Inc.) as well as bovine albumin as a standard. The DOX concentration was determined based on analysis of the absorbance at 480 nm.

[4] = cited from earlier work
[5] = pH 9, 60° C., after 30 minutes, DOX 0.1 mg/mL

Structure (SMILES): COc1cccc2c1C(=O)c1c(O)c3c(c(O)c1C2=O)C[C@@](O)(C(=O)CO)C[C@@H]3OC1CC(N)C(O)C(C)O1 (stereo partly shown) [DOX, Doxorubicin hydrochloride]
- incorporation efficiency of the reagent ([1]; pH 6 or less, 25° C., 60 minutes, DOX 0.1 mg/mL): ≤ 0.5 ° (wt)
- incorporation efficiency of the reagent ([1]; pH 9, 25° C., 60 minutes, DOX 0.1 mg/mL): ≥ 1 % (wt)
- incorporation efficiency of the reagent ([1]; pH 9, 60° C., 60 minutes, DOX 0.1 mg/mL): ≥ 5 % (wt)
- number of molecules of DOX incorporated into one molecule of FTH ferritin ([1]; pH 9, 60° C., 60 minutes, at maximum incorporation): 165
- incorporation efficiency of the reagent at the maximum ([1]; pH 9, 60° C., 60 minutes, concentration ratio of FTH ferritin to DOX varied (10:3 or less)): 16 % (wt)
- maximum incorporation efficiency of the reagent [1, 5]: 5 % (wt)
- number of molecules of DOX incorporated into one molecule of FTH ferritin [1, 5]: 50
- rate of DOX incorporation ([1]; pH 9, 60° C., until 30 minutes): 1.7 mg-DOX/minute per gram of ferritin
- Optimal pH in reaction [2]: 9
- incorporation efficiency of the reagent [3]: 8.6 % (wt)
- pKa ([4]; second pKa value): 8.46
- pKa ([4]; single or first pKa value): 7.34
- pKa ([4]; third printed pKa value): 9.46

Source: patent publication US20210253651A1, “METHOD FOR PRODUCING ORGANIC COMPOUND-ENCAPSULATING FERRITIN” (Ajinomoto Co., Inc., priority 2018, published 2021)
